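Assay format: 96-well plates, 48-hour exposure. Here, GI50 denotes the concentration required for 50% inhibition of growth. TGI: concentration producing complete growth inhibition.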
Assays:
Assay in all cases: inhibition of tumour cell growth, NCI panel, 48 h
A549 NSCLC = test system: A549 NSCLC
NCI-H226 lung = test system: NCI-H226 lung
LOX IMVI melanoma = test system: LOX IMVI melanoma
SK-MEL-28 melanoma = test system: SK-MEL-28 melanoma
EKVX NSCLC = test system: EKVX NSCLC
SNB-75 CNS = test system: SNB-75 CNS
U251 CNS = test system: U251 CNS
MOLT-4 leukemia = test system: MOLT-4 leukemia
MDA-MB-231 breast = test system: MDA-MB-231 breast
RXF 393 renal = test system: RXF 393 renal

SMILES | GI50 (A549 NSCLC) | TGI (A549 NSCLC) | GI50 (NCI-H226 lung) | TGI (NCI-H226 lung) | GI50 (LOX IMVI melanoma) | TGI (LOX IMVI melanoma) | GI50 (SK-MEL-28 melanoma) | TGI (SK-MEL-28 melanoma) | GI50 (EKVX NSCLC) | TGI (EKVX NSCLC) | GI50 (SNB-75 CNS) | TGI (SNB-75 CNS) | GI50 (U251 CNS) | TGI (U251 CNS) | GI50 (MOLT-4 leukemia) | TGI (MOLT-4 leukemia) | GI50 (MDA-MB-231 breast) | TGI (MDA-MB-231 breast) | GI50 (RXF 393 renal) | TGI (RXF 393 renal)
O=P(O)(O)OCC1OC(n2cnc3c(NCc4ccccc4)ncnc32)C(O)C1O (stereo not given) | 7.21 µM | > 88.4 µM | 2.26 µM | 6.48 µM | 0.334 µM | 1.47 µM | 21.2 µM | > 100 µM | 2.97 µM | 80.1 µM | 0.987 µM | > 44.1 µM | 5.21 µM | > 100 µM | 0.673 µM | > 100 µM | 0.35 µM | 1.35 µM | 1.46 µM | 13.8 µM
CC1SC(c2ccc(Cl)cc2Cl)N(NC(=O)C(O)c2ccccc2)C1=O (stereo not given) | 33.9 µM | > 100 µM | 44.1 µM | > 100 µM | > 100 µM | > 100 µM | 76.1 µM | > 100 µM | 68.8 µM | > 100 µM | 32.1 µM | > 100 µM | 61.4 µM | > 100 µM | 34.5 µM | > 100 µM | 46.2 µM | > 100 µM | 42.9 µM | > 100 µM
CC(SCc1ccccc1)C(=O)O (stereo not given) | – | > 100 µM | – | > 100 µM | – | > 100 µM | – | > 100 µM | – | > 100 µM | – | > 100 µM | – | > 100 µM | – | > 100 µM | – | > 100 µM | – | > 100 µM
COc1ccc2[nH]c(C(=O)OCc3ccc4c(Cl)cc(Cl)c(O)c4n3)cc2c1 | 1.67 µM | 3.4 µM | 1.42 µM | 3.07 µM | 0.907 µM | 2.22 µM | 1.67 µM | 3.03 µM | 1.45 µM | 2.88 µM | 0.251 µM | 1.78 µM | 1.55 µM | 2.94 µM | 1.03 µM | 3.72 µM | 1.02 µM | 2.18 µM | 0.407 µM | 1.76 µM
CC1(C)CCC[C@]2(C)c3ccccc3C(=O)CC12 (stereo not given in full) | 54.1 µM | > 100 µM | 22.9 µM | > 100 µM | 38.4 µM | > 100 µM | 64.6 µM | > 100 µM | 42.9 µM | > 100 µM | 34.6 µM | > 100 µM | 42.3 µM | > 100 µM | 75.8 µM | > 100 µM | 30.8 µM | > 100 µM | 82.1 µM | > 100 µM
O=c1/c(=N\Nc2ccccc2)c2cccc3ccc4cccc1c4c32 | – | > 100 µM | – | > 100 µM | – | > 100 µM | – | > 100 µM | – | > 100 µM | – | > 100 µM | – | > 100 µM | – | > 100 µM | – | > 100 µM | – | > 100 µM
CC(C)c1ccc(NC(=O)Cc2ccc(Nc3ncnc4cc(-c5cnn(CCN(C)C)c5)ccc34)cc2)cc1 | 1.2 µM | 4.15 µM | > 10 µM | > 10 µM | 1.36 µM | 3.37 µM | > 10 µM | > 10 µM | 2.42 µM | 9.23 µM | 0.162 µM | 2.03 µM | 1.7 µM | 4.5 µM | 1.43 µM | 4.73 µM | 1.44 µM | 3.14 µM | 1.3 µM | 3.43 µM
COc1cc2nccc(Oc3ccc(NC(=O)c4cn(C(C)C)c(=O)n(-c5ccc(F)cc5)c4=O)cc3F)c2cc1OC | > 26 µM | > 100 µM | 6.76 µM | > 21.8 µM | > 100 µM | > 100 µM | 3.19 µM | 18.1 µM | > 30.1 µM | > 100 µM | 1.03 µM | > 21.9 µM | > 100 µM | > 100 µM | > 100 µM | > 100 µM | 2.61 µM | 39.5 µM | > 21.1 µM | > 100 µM
COc1cc(NCCCCCN=C(N)NC(N)=NC(C)C)c2ncccc2c1 | 11.6 µM | 26.3 µM | 7.52 µM | 24.8 µM | 0.495 µM | 2.79 µM | 2.92 µM | 10.4 µM | 2.28 µM | 18.5 µM | 0.666 µM | 4.4 µM | 1.69 µM | 11.8 µM | 0.518 µM | 11 µM | 0.531 µM | 4.47 µM | 6.03 µM | 18.3 µM
COc1cc2c3c(n(CCCNCCCN)c(=O)c2cc1OC)-c1cc2c(cc1C3=O)OCO2 | 6.11 µM | 29.6 µM | 2.21 µM | 8.45 µM | 0.659 µM | 3.42 µM | 4.37 µM | 17.8 µM | 5.27 µM | 19.4 µM | 4.48 µM | 36.7 µM | 1.25 µM | 11.4 µM | 0.244 µM | 0.688 µM | 2.93 µM | 12.6 µM | 3.91 µM | 16.8 µM
